Consider three compounds from US20180193294A1, “Dehydroabietic acid (DHAA) derivatives for use as ion channel openers” (priority 2015, published 2018).

One data set addresses WT Shaker K channel (Drosophila melanogaster, UniProt P08510, DEL6-46). Nature of the data set: physchem. Type of data set: cell-based. Conditions: for pKa: Drosophila melanogaster, from pH dependence of G(V) shift. The source says:
A Shaker K channel is a Kv channel from the fruit fly Drosophila melanogaster. It is homologous to the human Kv1-type ion channels.
All animal experiments were approved by the local Animal Care and Use Committee and followed international guidelines. A modified Shaker H4 channel^30, with removed N-type inactivation (ShH4IR)^31, here called the wild type (WT) channel, was expressed in oocytes. In addition, a modified 3R Shaker K channel where two introduced positive charged arginines (M356R and A359R) in addition to one native arginine (R362) makes the channel more sensitive to DHA^16, was expressed in oocytes and in a CHO—K1 stable cell line.
African clawed frogs (Xenopus laevis) were anesthetized with 1.4 g/L ethyl 3-aminobenzoate methanesulfonate salt (tricaine). After an incision through the abdomen a batch of oocytes were removed. Clusters of oocytes were separated by incubation for ˜1 h in a Ca-free O—R2 solution (in mM: 82.5 NaCl, 2 KCl, 5 HEPES, and 1 MgCl2; pH adjusted to 7.4 by NaOH) containing Liberase Blendzyme. The oocytes were then incubated at 8° C. in a modified Barth's solution (MBS; in mM: 88 NaCl, 1 KCl, 2.4 NaHCO3, 15 HEPES, 0.33 Ca(NO3)2, 0.41 CaCl2, and 0.82 MgSO4; pH adjusted to 7.6 by NaOH) supplemented with penicillin (25 U/ml), streptomycin (25 μg/ml), and sodium pyruvate (2.5 mM) 2-24 hours before injection. Fifty nl of cRNA (50 pg) were injected into each oocyte using a Nanoject injector (Drummond Scientific, Broomall, Pa.). Injected oocytes were kept at 8° C. in MBS until one day before electrophysiological recordings, when they were incubated at 16° C. All chemicals were supplied from Sigma-Aldrich (Stockholm, Sweden) if not stated otherwise.
(§1) All manual electrophysiological recordings were performed at room temperature (20-23° C.), using a GeneClamp 500B amplifier (for oocytes) or a Axopatch 200B amplifier (for manual patch clamp of CHO—K1 cells and DRG neurons) and a Digidata 1440A digitizer and pClamp 10 software (all from Molecular Devices, Inc., Sunnyvale, Calif., USA). Compounds were dissolved to 100 mM in 99.5% EtOH and stored at −20° C. Compounds were diluted in extracellular solution to the desired test concentration.
The oocyte was placed in a bath surrounded by 1K extracellular solution that contained (in mM): 88 NaCl, 1 KCl, 15 HEPES, 0.4 CaCl2, and 0.8 MgCl2, pH adjusted to 7.4 by NaOH (reaching a sodium concentration of ˜100 mM). Control solution was added to the bath with a gravity driven perfusion system. Compound solution was added to the bath manually with a syringe. Two glass microelectrodes were inserted into the oocyte using micromanipulators. […] All channels were closed when the potential was clamped to −80 mV and this voltage was set as the holding potential. Currents were evoked from the holding potential of −80 mV by 100-ms long, 5-mV steps ranging from −80 up to +50 mV (WT) and +70 mV (3R).
Conductance GK(V) was calculated as GK(V)=[…], (Eq. 1) where IK is the average current from the steady-state phase at the end of each 100-ms pulse, V is the membrane voltage, and Vrev is the reversal potential for K^+, (set to −80 mV for the oocytes, and calculated to be −89 mV for the CHO—K1 cells).
G(V)=A/(1+exp((V1/2−V)/s))^n (Eq. 2) where A is amplitude of the curve, V is the absolute membrane voltage, V1/2 is the midpoint, s is the slope and n is an exponent set to 4^17. The compound-induced G(V) shift was determined at the 10% level of the maximum conductance in control solution^17. The compound-induced G(V) shift in CHO—K1 was quantified by subtracting the control V1/2 from the compound V1/2 when n was set to 1.
Data for concentration and pH dependent G(V) shifts (ΔV) in oocytes were fit with a dose-response equation ΔV=ΔVmax/(1+c1/2/c), (Eq. 3) where Δvmax is the maximal shift, c1/2 is half maximal effective concentration/pKa value and c is the concentration.

Data set [1] relates to dorsal root ganglion (DRG) neurons. Description: Resting membrane potential of DRG neurons, whole-cell current clamp. It is filed as cell-based, mice. Conditions: 10 μM, pH 7.4, 120 s application. On the procedure: (§2) All animal experiments were approved by the local Animal Care and Use Committee and followed international guidelines. Five female 7-12 week-old C57BL/6 mice (Scanbur) were used for this study. The mice were anaesthetized with isoflurane and decapitated. Dorsal root ganglia (DRG) were dissected from all spinal levels and enzymatically digested with collagenase (250 CDU/ml) for 15 min, and then trypsin (1 mg/ml) was added for another 30 min. The ganglia were centrifuged and resuspended in Leibovitz L-15 media with glutamine, supplemented with 10% fetal calf serum, 38 mM glucose, 24 mM NaHCO3 and penicillin/streptomycin. The ganglia were triturated and the DRG neurons plated on poly-D-lysine coated plastic coverslips. The neurons were cultured at 37° C. with 5% CO2 for 2-3 days before the electrophysiological recordings.
as §1
(§3) CHO—K1 Cells were plated on coverslips 2 h before the manual electrophysiological recordings. Coverslips with CHO—K1 cells or DRG neurons were placed in a recording chamber and perfused with extracellular solution by a gravity-fed perfusion system. Substances were applied by a pressurized, automated OctaFlow perfusion system (ALA Scientific Instruments). The signals were sampled at 5-20 kHz after low-pass filtering at 2-5 kHz. For CHO—K1 cells the intracellular solution contained (in mM): 120 K-gluconate, 10 KCl, 5 EGTA, 10 HEPES, 4 Mg-ATP, 0.3 Na-GTP, pH 7.3; the extracellular solution contained (in mM): 135 NaCl, 4 KCl, 10 HEPES, 1 MgCl2, 1.8 CaCl2, 10 glucose, pH 7.4. Currents were evoked in CHO—K1 cells in whole-cell voltage-clamp mode from a holding potential of −80 mV by 100-ms long, 10-mV steps ranging from −80 to +80 mV.
(§4) For DRG neurons the intracellular solution contained (in mM): 120 K-gluconate, 10 KCl, 1 EGTA, 10 HEPES, 4 Mg-ATP, 0.3 Na-GTP, pH 7.3; the extracellular solution contained (in mM): 144 NaCl, 2.5 KCl, 10 HEPES, 0.5 MgCl2, 2 CaCl2, 10 glucose, pH 7.4. A liquid-junction potential of approximately −14 mV was corrected for. […] Small and medium sized DRG neurons were selected for whole-cell current-clamp recording. 10 μM of the compounds were applied for 120 s to study the effect on the resting membrane potential, and for 45-120 s to study the effects on evoked action potentials. To evoke action potentials 800-ms depolarizing pulses
The compound effect on the resting membrane potential Vm was determined by subtracting the control pre-compound Vm from the Vm at the end of the 120 s application of test compound.

Data set [2] shares this test system. Description: Evoked action potentials (excitability) of DRG neurons, current clamp. Type of data set: cell-based, mice. To be noted: 10 μM; for effect on the after hyperpolarization: cell with single action potential; for effect on resting potential, cell with single action potential: constant current pulse; for effect on train of action potentials: continuous pulse. Here is the method:
as §2, §1, §3, §4

WT Shaker K channel, sequence (P08510 other isoform, or with tags, fused parts or gaps DEL6-46): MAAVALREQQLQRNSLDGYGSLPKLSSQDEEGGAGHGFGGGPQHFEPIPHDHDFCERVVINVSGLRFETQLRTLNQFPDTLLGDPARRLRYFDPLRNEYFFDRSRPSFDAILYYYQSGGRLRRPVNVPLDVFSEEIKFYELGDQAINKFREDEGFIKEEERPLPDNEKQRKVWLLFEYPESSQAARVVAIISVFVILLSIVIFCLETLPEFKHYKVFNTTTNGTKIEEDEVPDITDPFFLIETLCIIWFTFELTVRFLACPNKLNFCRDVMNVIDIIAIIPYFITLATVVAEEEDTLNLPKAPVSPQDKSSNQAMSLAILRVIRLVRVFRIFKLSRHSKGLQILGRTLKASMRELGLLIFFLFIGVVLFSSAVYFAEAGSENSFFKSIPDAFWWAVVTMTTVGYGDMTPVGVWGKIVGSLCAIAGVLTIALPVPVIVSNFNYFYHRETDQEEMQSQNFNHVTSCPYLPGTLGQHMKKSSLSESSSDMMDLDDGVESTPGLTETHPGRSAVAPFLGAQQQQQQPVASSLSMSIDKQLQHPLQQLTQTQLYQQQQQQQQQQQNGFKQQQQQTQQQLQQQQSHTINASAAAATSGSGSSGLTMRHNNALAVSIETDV

As to `CO/N=C1\CC2[C@](C)(C(=O)O)CCC[C@]2(C)c2cc(Br)c(C(C)C)cc21` (stereo partly drawn) [Wu32, (1R,4aS,E)-6-bromo-7-isopropyl-9-(methoxyimino)-1,4a-dimethyl-1,2,3,4,4a,9,10,10a-octahydrophenanthrene-1-carboxylic acid], the pKa on WT Shaker K channel (100 μM) amounted to 6.1. Moreover, in data set [1], the “shift of the resting membrane potential (ΔVm)” value is listed as “intermediately potent hyperpolarizers”.

As for `CC(C)c1ccc2c(c1)C(C(=O)O)CC1[C@](C)(C(=O)O)CCC[C@]21C` (some centres unmarked) [Wu35], the “shift of the resting membrane potential (ΔVm)” value in data set [1] is listed as −1.1±0.4. Further, in data set [2], the “effect on the after hyperpolarization” value is recorded as “only a very small effect”; the “effect on resting potential, cell with single action potential” value is on record as “almost no effect”; the “effect on train of action potentials” value is “almost no effect on the same cell”.

As to `C[C@@]1(C(=O)O)CCC[C@]2(C)c3cc(Cl)c(Cl)c(Cl)c3CCC12` (stereo partly drawn) [Wu50, (1R,4aS)-6,7,8-trichloro-1,4a-dimethyl-1,2,3,4,4a,9,10,10a-octahydrophenanthrene-1-carboxylic acid], the “G(V) shift for WT relative to 100 μM DHAA” value on WT Shaker K channel (100 μM, pH 7.4) is reported as about 10 times. The “G(V) shift for WT” value at WT Shaker K channel (100 μM, pH 7.4, Xenopus oocytes) is reported as −21.2 mV. On WT Shaker K channel (100 μM), the pKa was found to be 6.8. For the same compound, the “current amplitude increase compared to DHAA” value at WT Shaker K channel (WT channel at pH 7.4) is listed as 56 times. The “current amplitude increase compared to DHA (A=exp(−ΔV/4.7))” value on WT Shaker K channel (WT, 100 μM, pH 7.4) amounted to 25 times. In data set [2], the “effect on the after hyperpolarization” value is “pronounced effect”; the “effect on resting potential, cell with single action potential” value is listed as “made the resting potential more negative”; the “effect on train of action potentials” value is reported as “completely abolished all action potentials”.
